Experimental data published in publication PMC7522982, “PKIS deep dive yields a chemical starting point for dark kinases and a cell active BRSK2 inhibitor” (Scientific Reports, 2020).
Where “and” joins values, the source holds several entries; their conditions need not be identical. Equal entries are not always repeated. Where two headings read alike, the source gives them in different places.

Tests used:
[1] = biological target: T1, NLuc-BRSK2 in HEK293 cells (Homo sapiens, UniProt Q8IWQ3); assay: BRSK2 NanoBRET cellular target engagement assay; assay type: cell-based; settings: HEK293 cells transiently expressing NLuc-BRSK2, Tracer K5 1 μM, N = 3
T1 construct: host or cells: HEK293
T1 sequence (Q8IWQ3 1-736): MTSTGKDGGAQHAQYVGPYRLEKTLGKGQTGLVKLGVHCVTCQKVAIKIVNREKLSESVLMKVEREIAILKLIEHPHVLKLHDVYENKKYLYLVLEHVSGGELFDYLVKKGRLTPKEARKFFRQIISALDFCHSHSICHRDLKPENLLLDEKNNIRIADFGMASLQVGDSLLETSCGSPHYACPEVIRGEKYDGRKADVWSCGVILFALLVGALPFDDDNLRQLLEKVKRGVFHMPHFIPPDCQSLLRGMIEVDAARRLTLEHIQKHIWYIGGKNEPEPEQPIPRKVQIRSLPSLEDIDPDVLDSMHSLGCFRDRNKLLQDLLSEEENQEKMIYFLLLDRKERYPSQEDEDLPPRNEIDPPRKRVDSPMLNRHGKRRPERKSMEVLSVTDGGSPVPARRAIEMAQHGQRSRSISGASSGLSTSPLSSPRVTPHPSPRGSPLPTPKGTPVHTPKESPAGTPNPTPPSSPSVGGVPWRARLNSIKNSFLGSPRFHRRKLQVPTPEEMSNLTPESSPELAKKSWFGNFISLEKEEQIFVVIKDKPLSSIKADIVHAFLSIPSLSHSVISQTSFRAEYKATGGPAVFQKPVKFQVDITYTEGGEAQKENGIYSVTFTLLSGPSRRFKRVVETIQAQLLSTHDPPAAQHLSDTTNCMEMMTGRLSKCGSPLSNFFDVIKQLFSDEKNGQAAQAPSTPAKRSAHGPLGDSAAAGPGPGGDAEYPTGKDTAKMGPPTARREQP
Procedure: Our interest in illuminating BRSK2 biology motivated further investigation of the cellular target engagement of BRSK2 by GW296115 using our NanoBRET assay. BRSK2 kinase was fused to 19-kDa luciferase (NLuc) at its N-terminus (NLuc–BRSK2) which was transiently expressed in HEK293 cells, and then incubated with a cell-permeable fluorescent energy transfer probe (tracer)[23].
NanoBRET assays were executed as described previously. Constructs for BRSK2 NanoBRET measurements were provided in kind by Promega. The N-terminal Nanoluciferase (NL)/BRSK2 fusion (NL-BRSK2) was encoded in pFN32K expression vector, including flexible Gly-Ser-Ser-Gly linkers between NL and BRSK2 (Promega). For cellular BRSK2 NanoBRET target engagement experiments, a 10 μg/mL solution of DNA in Opti-MEM without serum (Gibco) was prepared with 9 μg/mL of Carrier DNA (Promega) and 1 μg/mL of NL-BRSK2 to achieve a total volume of 1.05 mL. To this solution was then added 31.5 μL of FuGENE HD (Promega) to form a lipid:DNA complex, mixed by inversion 8 times, and incubated at room temperature for 20 min. The resulting transfection complex (1.082 mL) was next gently mixed with HEK293 cells (21 mL) suspended at a density of 2 × 10^5 cells/mL in DMEM containing 10% FBS.
After 24 h, media was removed via aspiration and 85 μL of room temperature Opti-MEM without phenol red (Gibco) was added to each well. […] Next, 5 μL (20 × working stock of NanoBRET Tracer K5 [20 μM] in Tracer Dilution Buffer (Promega N291B)) was added to each well with the exception of the “no tracer” control wells. Test compounds were prepared as concentrated stock solutions in 100% DMSO (Sigma) at a concentration of 10 mM. […] A volume of 10 μL of tenfold test compound stock solutions (final assay concentration of […]) was added to each well. For “no compound” and “no tracer” control wells, 10 μL of Opti-MEM plus DMSO (9 μL Opti-MEM plus 1 μL DMSO) was added to each well to achieve a final concentration of 1% DMSO.
After 2 h, plates were returned to room temperature over the course of 15 min. […] Next, 50 μL of the 3 × substrate/extracellular NL inhibitor stock was added to each well.
Test compounds were evaluated at 8 concentrations in competition with NanoBRET Tracer K5 in HEK293 cells transiently expressing the NL-BRSK2 fusion protein. Raw milliBRET (mBRET) values were obtained by dividing the acceptor emission values (600 nm) by the donor emission values (450 nm), and then multiplying by 1000. Averaged control values were used to represent complete inhibition (no tracer control: transfected cells in Opti-MEM + DMSO; tracer control: transfected cells in Opti-MEM + DMSO + Tracer K5 only), and were plotted alongside the raw mBRET values. The data with n = 3 biological replicates was first normalized and then fit using Sigmoidal, 4PL binding curve in Prism Software (version 8, GraphPad, La Jolla, CA, USA).

BRSK2 = biological target: T2, BRSK2 (Homo sapiens, UniProt Q8IWQ3); design: purchased Eurofins; settings: 0.5 μM; cited from earlier work
T2 sequence (Q8IWQ3 1-736): T1 sequence (Q8IWQ3 1-736)

[2] = read-out: BRSK2 NanoBRET data IC50

SMILES | IC50 [1, 2] [nM] | further results
O=C1NC(=O)c2c1c1c3ccccc3[nH]c1c1[nH]c3cc(Br)ccc3c21 [CDK4 inhibitor] | 1330 ± 230 | 
O=C1NC(=O)C(c2c[nH]c3ccccc23)=C1c1c[nH]c2ccccc12 [Bisindolylmaleimide IV, bisindolylmaleimide IV] |  | biochemical inhibition of BRSK2 (BRSK2): weak biochemical inhibition
O=C1NC(=O)c2c1c1c3ccccc3[nH]c1c1[nH]c3ccccc3c21 [Arcyriaflavin A] | 7680 ± 3500 | 
COC(=O)C1(O)CC2OC1(C)n1c3ccccc3c3c4c(c5c6ccccc6n2c5c31)C(=O)NC4 (stereo not shown) [K-252a] |  | IC50 ([1]; BRSK2 NanoBRET data IC50 (nM)): 20.2 nM and < 100 nM
Cn1c2ccccc2c2c3c(c4c5ccccc5n(CCC#N)c4c21)CNC3=O [Gö 6976] | 914 ± 640 | 
O=C1NC(=O)c2c1c1c3ccccc3n3c1c1c2c2ccccc2n1C1CCC3O1 [SB 218078] | 883 ± 200 | 
O=C1NCc2c1c1c3ccccc3[nH]c1c1[nH]c3ccccc3c21 [K-252c] |  | IC50 ([1]; BRSK2 NanoBRET data IC50 (nM)): 308 ± 250 nM
